Values of other authors in patent US7358226B2, “Ultrasonic concentration of drug delivery capsules” (The Regents of the University of California, priority 2003, dated 2008).

Columns and labels:
P-gp = biological target: T1, P-gp (Mus musculus, UniProt P21447)
T1 construct: host or cells: mouse brain in vivo (endogenous protein)

P-glycoprotein = biological target: T2, P-glycoprotein (Mus musculus, UniProt P21447)
T2 construct: host or cells: mouse brain in vivo (endogenous protein)

tumor = settings: paclitaxel alone

T1 sequence (P21447 whole entry): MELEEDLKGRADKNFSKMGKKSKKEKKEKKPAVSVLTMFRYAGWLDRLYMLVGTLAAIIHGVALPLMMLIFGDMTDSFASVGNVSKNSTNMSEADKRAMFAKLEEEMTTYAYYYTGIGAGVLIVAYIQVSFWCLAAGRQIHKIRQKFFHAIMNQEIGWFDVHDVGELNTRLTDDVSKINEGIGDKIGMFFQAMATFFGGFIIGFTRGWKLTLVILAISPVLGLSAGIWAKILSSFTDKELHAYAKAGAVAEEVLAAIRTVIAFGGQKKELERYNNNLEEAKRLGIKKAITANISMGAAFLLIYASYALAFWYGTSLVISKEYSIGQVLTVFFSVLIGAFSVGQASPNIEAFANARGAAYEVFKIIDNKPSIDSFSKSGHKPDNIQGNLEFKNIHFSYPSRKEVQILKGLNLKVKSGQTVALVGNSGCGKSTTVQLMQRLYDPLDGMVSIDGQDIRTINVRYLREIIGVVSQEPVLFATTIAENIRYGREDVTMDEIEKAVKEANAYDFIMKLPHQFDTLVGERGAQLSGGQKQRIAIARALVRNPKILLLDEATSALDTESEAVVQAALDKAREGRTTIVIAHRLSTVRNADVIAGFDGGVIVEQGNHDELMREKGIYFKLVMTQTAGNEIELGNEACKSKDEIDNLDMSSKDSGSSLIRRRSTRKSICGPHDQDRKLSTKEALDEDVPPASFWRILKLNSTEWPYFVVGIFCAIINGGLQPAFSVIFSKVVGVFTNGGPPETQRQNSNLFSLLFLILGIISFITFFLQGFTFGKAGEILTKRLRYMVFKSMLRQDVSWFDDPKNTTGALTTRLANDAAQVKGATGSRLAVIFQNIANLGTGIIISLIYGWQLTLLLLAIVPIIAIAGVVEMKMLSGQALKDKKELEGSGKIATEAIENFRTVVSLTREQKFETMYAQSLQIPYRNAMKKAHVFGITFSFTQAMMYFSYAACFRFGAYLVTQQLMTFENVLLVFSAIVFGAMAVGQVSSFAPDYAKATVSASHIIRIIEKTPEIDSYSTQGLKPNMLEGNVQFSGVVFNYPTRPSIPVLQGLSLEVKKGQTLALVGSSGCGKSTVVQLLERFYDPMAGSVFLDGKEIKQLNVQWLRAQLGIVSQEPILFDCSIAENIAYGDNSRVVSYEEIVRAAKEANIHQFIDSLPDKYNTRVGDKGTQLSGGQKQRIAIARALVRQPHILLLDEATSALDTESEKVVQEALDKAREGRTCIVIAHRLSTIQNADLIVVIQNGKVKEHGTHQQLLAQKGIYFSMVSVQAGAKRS
T2 sequence (P21447 whole entry): as above

CC(=O)O[C@H]1C(=O)[C@@]2(C)[C@H]([C@H](OC(=O)c3ccccc3)[C@]3(O)C[C@H](OC(=O)[C@H](O)[C@@H](NC(=O)c4ccc([18F])cc4)c4ccccc4)C(C)=C1C3(C)C)[C@]1(OC(C)=O)CO[C@@H]1C[C@@H]2O [F18-fluoropaclitaxel]
increase of F18-fluoropaclitaxel uptake in the brain (P-gp; P-gp knockout mice relative to wildtype controls): 1400% | clearance (P-gp; mouse, in vivo): rapid clearance | tissue uptake (P-gp; mouse, in vivo): high uptake in many tissues

C/C=C/C[C@@H](C)C(=O)[C@H]1C(=O)N[C@@H](C(C)C)C(=O)N(C)CC(=O)N(C)[C@@H](CC(C)C)C(=O)N[C@@H](C(C)C)C(=O)N(C)[C@@H](CC(C)C)C(=O)N[C@@H](C)C(=O)N[C@H](C)C(=O)N(C)[C@@H](CC(C)C)C(=O)N(C)[C@@H](CC(C)C)C(=O)N(C)[C@@H](C(C)C)C(=O)N1C [Valspodar]
brain concentrations of paclitaxel (P-glycoprotein; Valspodar co-administered with paclitaxel): significantly increase

COc1cc2c(cc1OC)CN(CCc1ccc(NC(=O)c3cc(OC)c(OC)cc3NC(=O)c3cnc4ccccc4c3)cc1)CC2 [XR9576]
increase of uptake of F18-fluoropaclitaxel (P-gp; preadministration of XR9576, increase was not significant): 20%

CC(=O)O[C@H]1C(=O)[C@@]2(C)[C@H]([C@H](OC(=O)c3ccccc3)[C@]3(O)C[C@H](OC(=O)[C@H](O)[C@@H](NC(=O)c4ccccc4)c4ccccc4)C(C)=C1C3(C)C)[C@]1(OC(C)=O)CO[C@@H]1C[C@@H]2O [paclitaxel, Paclitaxel]
effect on tumor volume (tumor): did not affect tumor volume | penetration of paclitaxel into the brain (P-glycoprotein; P-glycoprotein knockout mice): markedly increased
